Read-outs that look alike come from different tables or passages of the source.
Legend:
[1] = target: T1, cloned human κ-opioid receptor (Homo sapiens, UniProt P41145); assay: Inhibition of U69,593-stimulated [35S]GTPγS binding; type: biochemical; conditions: for δ/κ / μ/κ: ratio of Ke values; for δ/κ: selectivity for κ relative to δ; for μ/κ: selectivity for κ relative to μ
T1 construct: expressed in transfected cells

[2] = target: T2, cloned human μ-opioid receptor (Homo sapiens, UniProt P35372); assay: Inhibition of DAMGO-stimulated [35S]GTPγS binding; type: biochemical
T2 construct: expressed in transfected cells
T2 sequence (P35372 whole entry): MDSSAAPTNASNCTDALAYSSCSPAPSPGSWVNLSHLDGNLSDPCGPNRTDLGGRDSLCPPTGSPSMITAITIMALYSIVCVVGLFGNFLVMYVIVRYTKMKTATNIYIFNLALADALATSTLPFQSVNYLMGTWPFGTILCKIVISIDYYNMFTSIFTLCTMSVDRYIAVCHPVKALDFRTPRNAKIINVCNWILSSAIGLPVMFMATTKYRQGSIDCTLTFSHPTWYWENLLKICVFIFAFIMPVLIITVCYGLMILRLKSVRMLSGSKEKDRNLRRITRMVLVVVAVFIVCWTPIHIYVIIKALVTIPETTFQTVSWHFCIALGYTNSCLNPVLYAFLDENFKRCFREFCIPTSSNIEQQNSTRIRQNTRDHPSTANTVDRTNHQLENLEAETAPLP

[3] = target: T3, cloned human δ-opioid receptor (Homo sapiens, UniProt P41143); assay: Inhibition of DPDPE-stimulated [35S]GTPγS binding; type: biochemical
T3 construct: expressed in transfected cells
T3 sequence (P41143 whole entry): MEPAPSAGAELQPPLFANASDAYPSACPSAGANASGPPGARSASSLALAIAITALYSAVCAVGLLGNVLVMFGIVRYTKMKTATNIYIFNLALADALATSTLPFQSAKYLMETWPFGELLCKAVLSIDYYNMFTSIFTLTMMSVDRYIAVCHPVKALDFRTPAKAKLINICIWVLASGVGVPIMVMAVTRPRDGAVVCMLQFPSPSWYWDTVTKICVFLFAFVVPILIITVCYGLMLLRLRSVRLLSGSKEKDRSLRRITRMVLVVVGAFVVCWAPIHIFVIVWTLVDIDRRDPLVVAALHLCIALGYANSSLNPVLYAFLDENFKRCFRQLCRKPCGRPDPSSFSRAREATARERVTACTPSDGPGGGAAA

[4] = antagonism of U69,593-stimulated [35S]GTPγS binding, cloned human κ receptor, read-out: κ, U69,593 Ke
[5] = antagonism of DAMGO-stimulated [35S]GTPγS binding, cloned human μ receptor, read-out: μ, DAMGO Ke
[6] = antagonism of DPDPE-stimulated [35S]GTPγS binding, cloned human δ receptor, read-out: δ, DPDPE Ke

T1 sequence (P41145 whole entry): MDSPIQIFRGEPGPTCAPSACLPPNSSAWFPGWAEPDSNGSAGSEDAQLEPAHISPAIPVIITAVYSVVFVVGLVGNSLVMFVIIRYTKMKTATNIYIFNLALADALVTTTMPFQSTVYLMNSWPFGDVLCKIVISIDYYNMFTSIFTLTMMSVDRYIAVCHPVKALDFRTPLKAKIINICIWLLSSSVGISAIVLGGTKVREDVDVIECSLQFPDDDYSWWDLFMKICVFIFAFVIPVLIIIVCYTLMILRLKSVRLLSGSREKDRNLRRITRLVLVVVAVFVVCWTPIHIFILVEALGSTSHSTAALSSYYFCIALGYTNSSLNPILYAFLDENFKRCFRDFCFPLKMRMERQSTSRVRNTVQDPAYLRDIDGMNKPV

| SMILES | Kb [1, 4] | δ/κ [1] | μ/κ [1] | melting point | Kb [2, 5] | Kb [3, 6] | Kb [1] | Kb [2] | Kb [3] | efficacy for the κ opioid receptor in words ([1]; [35S]GTPγS in vitro functional assay) |
| --- | --- | --- | --- | --- | --- | --- | --- | --- | --- | --- |
| Cc1cc(C)cc(Oc2ccc(C(=O)N[C@H](CN3CCN(c4cccc(O)c4)[C@@H](C)C3)C(C)C)cc2)c1.Cl.Cl [Compound 19f, 4-(3,5-Dimethylphenoxy)-N-[(1S)-1-{[(3S)-4-(3-hydroxyphenyl)-3-methylpiperazin-1-yl]methyl}-2-methylpropyl]benzamide Dihydrochloride] | 0.98 ± 0.06 nM | 80 | 26 | 117 to 120 °C | 25 ± 7 nM | 78 ± 20 nM | – | – | – | – |
| Cc1cccc(Oc2ccc(C(=O)N[C@H](CN3CCN(c4cccc(O)c4)[C@@H](C)C3)C(C)C)c(O)c2)c1.Cl.Cl [Compound 19l, 2-Hydroxy-N-[(1S)-1-{[(3S)-4-(3-hydroxyphenyl)-3-methylpiperazin-1-yl]methyl}-2-methylpropyl]-4-(3-methylphenoxy)benzamide Dihydrochloride] | – | 129 | 81 | 119 to 123 °C | – | – | 1.8 ± 0.3 nM | 145 ± 48 nM | 233 ± 90 nM | – |
| Cc1cccc(Oc2ccc(C(=O)N[C@H](CN3CCN(c4cccc(O)c4)[C@@H](C)C3)C(C)C)cc2O)c1.Cl.Cl [Compound 19i, 3-Hydroxy-N-[(2S)-1-[(3S)-4-(3-hydroxyphenyl)-3-methylpiperazin-1-yl]-3-methylbutan-2-yl]-4-(3-methylphenoxy)benzamide Dihydrochloride] | 0.57 ± 0.14 nM | 142 | 24 | 195 to 200 °C | 13.7 ± 5.6 nM | 81 ± 35 nM | – | – | – | – |
| CC(C)[C@@H](CN1CCN(c2cccc(O)c2)[C@@H](C)C1)NC(=O)c1ccc(Oc2cccc(C(F)(F)F)c2)cc1 [Compound 19b, N-[(1S)-1-{[(3S)-4-(3-Hydroxyphenyl)-3-methylpiperazin-1-yl]methyl}-2-methylpropyl]-4-[3-(trifluoromethyl)phenoxy]benzamide] | – | 45 | 18 | 110 to 115 °C | – | – | 1.2 ± 0.35 nM | 21 ± 7.2 nM | 54 ± 19 nM | – |
| COc1cc(C(=O)N[C@H](CN2CCN(c3cccc(O)c3)[C@@H](C)C2)C(C)C)ccc1Oc1cccc(C)c1.Cl.Cl [Compound 19h, N-[(2S)-1-[(3S)-4-(3-Hydroxyphenyl)-3-methylpiperazin-1-yl]-3-methylbutan-2-yl]-3-methoxy-4-(3-methylphenoxy)benzamide Dihydrochloride] | 0.25 ± 0.07 nM | – | – | 128 to 131 °C | 35.1 ± 15 nM | 93 ± 4 nM | – | – | – | – |
| Cc1cccc(Oc2ccc(C(=O)N[C@H](CN3CCN(c4cccc(O)c4)[C@@H](C)C3)C(C)C)c(C)c2)c1.Cl.Cl [Compound 19j, N-[(1S)-1-{[(3S)-4-(3-Hydroxyphenyl)-3-methylpiperazin-1-yl]methyl}-2-methylpropyl]-2-methyl-4-(3-methylphenoxy)benzamide Dihydrochloride] | 0.65 ± 0.2 nM | 28 | 22 | 164 to 167 °C | – | – | – | 14 ± 3 nM | 18 ± 3 nM | – |
| Cc1cccc(Oc2ccc(C(=O)N[C@H](CN3CCN(c4cccc(O)c4)[C@@H](C)C3)C(C)C)cc2Cl)c1.Cl.Cl [Compound 6l, 3-Chloro-N-[(2S)-1-[(3S)-4-(3-hydroxyphenyl)-3-methylpiperazin-1-yl]-3-methylbutan-2-yl]-4-(3-methylphenoxy)benzamide Dihydrochloride] | 0.29 ± 0.13 nM | – | – | 154 to 158 °C | 43 ± 10 nM | 1100 ± 262 nM | – | – | – | high efficacy (low Ke values) |
| Cc1ccc(O)c(Oc2ccc(C(=O)N[C@H](CN3CCN(c4cccc(O)c4)[C@@H](C)C3)C(C)C)cc2Cl)c1.Cl.Cl [Compound 19p, 3-Chloro-4-(2-hydroxy-5-methylphenoxy)-N-[(1S)-1-{[(3S)-4-(3-hydroxyphenyl)-3-methylpiperazin-1-yl]methyl}-2-methylpropyl]benzamide Dihydrochloride] | 3 ± 1.1 nM | 5 | 3 | 145 to 148 °C | 8.2 ± 1.7 nM | 15 ± 3.6 nM | – | – | – | – |
| Cc1cccc(Oc2ccc(C(=O)N[C@H](CN3CCN(c4cccc(O)c4)[C@@H](C)C3)C(C)C)cc2)c1O.Cl.Cl [Compound 19e, 4-(2-Hydroxy-3-methylphenoxy)-N-[(2S)-1-[(3S)-4-(3-hydroxyphenyl)-3-methylpiperazin-1-yl]-3-methylbutan-2-yl]benzamide Dihydrochloride] | 0.34 ± 0.16 nM | – | – | 173 °C | 23.8 ± 8.9 nM | 92.7 ± 14 nM | – | – | – | – |
| CC(C)[C@@H](CN1CCN(c2cccc(O)c2)[C@@H](C)C1)NC(=O)c1ccc(Oc2cccc(Cl)c2)cc1.Cl.Cl [Compound 19c, 4-(3-Chlorophenoxy)-N-[(1S)-1-{[(3S)-4-(3-hydroxyphenyl)-3-methylpiperazin-1-yl]methyl}-2-methylpropyl]benzamide Dihydrochloride] | 0.42 ± 0.05 nM | 20 | 43 | 103 to 105 °C | 18 ± 7.2 nM | 8.3 ± 0.9 nM | – | – | – | – |
| COc1cc(C(=O)N[C@H](CN2CCN(c3cccc(O)c3)[C@@H](C)C2)C(C)C)ccc1Oc1ccccc1O.Cl.Cl [Compound 19m, 4-(2-Hydroxyphenoxy)-N-[(1S)-1-{[(3S)-4-(3-hydroxyphenyl)-3-methylpiperazin-1-yl]methyl}-2-methylpropyl]-3-methoxybenzamide Dihydrochloride] | 16.3 ± 2.7 nM | 4 | 5 | 95 to 97 °C | 74 ± 23 nM | – | – | – | 67 ± 47 nM | – |
| CC(C)[C@@H](CN1CCN(c2cccc(O)c2)[C@@H](C)C1)NC(=O)c1ccc(Oc2ccccc2)nc1.Cl.Cl.Cl [Compound 7b, N-[(2S)-1-[(3S)-4-(3-Hydroxyphenyl)-3-methylpiperazin-1-yl]-3-methylbutan-2-yl]-6-phenoxypyridine-3-carboxamide Trihydrochloride] | – | 1119 | 38 | 168 to 170 °C | – | – | 1.6 ± 0.3 nM | 60 ± 11 nM | 1790 ± 63 nM | – |
| COc1cc(C(=O)N[C@H](CN2CCN(c3cccc(O)c3)[C@@H](C)C2)C(C)C)ccc1Oc1cc(C)ccc1O.Cl.Cl [Compound 19o, 4-(2-Hydroxy-5-methylphenoxy)-N-[(1S)-1-{[(3S)-4-(3-hydroxyphenyl)-3-methylpiperazin-1-yl]methyl}-2-methylpropyl]-3-methoxybenzamide Dihydrochloride] | 6.2 ± 2.2 nM | 6 | 2 | 100 to 103 °C | – | – | – | 10 ± 2.6 nM | 37 ± 13 nM | – |
